From patent US20230041563A1, “N-(1,3,4-OXADIAZOL-2-YL)ARYLCARBOXAMIDES OR SALTS THEREOF, PREPARATION METHODS, HERBICIDAL COMPOSITIONS AND USES THEREOF” (priority 2018, published 2023)

How the values were obtained:
[1] = test system: Echinochloa crusgali; test: Transplanted rice safety evaluation and weed control effect evaluation in rice field; format: in vivo; conditions: Table 7, dose 125 g a.i./ha, 14 days after treatment
Method in brief: (§1)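 Paddy-soil pots, seeds sown and flooded (0.5-1 cm, then 3-4 cm water); Sagittaria grown from tubers. WP or SC dilutions dripped on at 0.5-leaf stage (Sagittaria at primary leaf). Visual 0-5 scoring of weeds at 14 days, rice at 21 days.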

[2] = test system: Scirpus juncoides; test: as above; format: in vivo; conditions: Table 7, dose 125 g a.i./ha, 14 days after treatment
Method in brief: as §1

Compound: CCSc1c(C(F)(F)F)ccc(C(=O)Nc2nnc(C)o2)c1F [Compound 1-4]
- Echinochloa crusgali (activity level) [1]: 5 (Level 5: growth control rate is above 85%)
- Scirpus juncoides (activity level) [2]: 5 (Level 5: growth control rate is above 85%)
